Residues, ends and D or L forms follow the SMILES beside them.
Assays:
[1] = test system: NHEKs, differentially expressed genes; assay: RNA-Seq transcriptomic profile of NHEKs; assay type: cell-based, human; settings: U1 + peptide in comparison to U1 + LL-34 parent, protein-protein interaction networks from RNA-Seq
Source text: RNA-Seq was utilized to obtain a global transcriptomic profile and map unique immune pathways in NHEKs exposed to U1 dsRNA, LL-34 parent, Pep I24A, Pep L31A, and a combination of U1 dsRNA and LL-34 parent, Pep I24A, or Pep L31A. […] Similarly, 448 and 325 unique differentially regulated genes were observed after U1 + I24A and U1 + L31A treatments, respectively (Fig. 3, A and B and Fig. S2, A and B). […] These pathways included type 1 interferon signaling, cytokine signaling, response to external biotic stimulus, and cytokine-mediated signaling pathway. […] We verified the repression of mitochondrial antiviral signaling (MAVS) with immunoblot analysis. NHEKs were treated with U1 dsRNA, LL-34 parent, Pep I24A, Pep L31A, or with a combination of U1 and LL-34 parent, U1 and Pep I24A, or U1 and Pep L31A (Fig. 3E).
RNA was extracted using a PureLink RNA Mini Kit (Life Technologies). Isolated RNA was submitted to the UCSD IGM Genomics Center for RNA-Seq performed on a high-output run V4 platform (Illumina) with a single-read 100 cycle runs. Data alignment was done on Partek Flow software (Partek) with Tophat2 (version 2.0.8). Gene Ontology enrichment analysis was performed on differentially regulated genes (≥1.5-fold) using Partek Flow software. The protein–protein interaction network was generated in the InnateDB database ([44]).

[2] = test system: C57BL/6 mouse ear skin inflammation; assay: Intradermal ear injection with U1 dsRNA in mice; assay type: in vivo; settings: 24 h; for Gene expression of IL-6 and CXCL10 in mouse ears: C57BL/6 female mice, intradermal ear coinjection of 25 μg U1 dsRNA and 16 μM peptide, qRT-PCR, mutants compared with U1 dsRNA + LL-34 parent; for Mast cells in mouse ear skin (flow cytometry) / Macrophage and neutrophil recruitment in mouse ear skin (flow cytometry): C57BL/6 mice, intradermal coinjection of 25 μg U1 dsRNA and 16 μM peptide, n = 3; for Mast cells in mouse ear skin (flow cytometry): frequency of gated live cells; for Macrophage and neutrophil recruitment in mouse ear skin (flow cytometry): mutants compared with LL-34 parent + U1 dsRNA
Experimental: C57BL/6 female mice at 8 weeks old were injected in the ears intradermally with a single injection of 25 μg of U1 dsRNA and/or LL-34 parent, Pep I24A, or Pep L31A. We investigated gene expression of IL-6, CXCL10, and TSLP in these mice (Fig. 2, B–D). […] This was in agreement with the in vitro results (Fig. 1). We also looked at the infiltration of immune cells to the mouse ear skin with flow cytometry.
Figure 2 LL-34-I24A and LL-34-L31A peptides loose vetting activity in vivo. C57BL/6 mice ears were injected intradermally with either 25 μg of U1 dsRNA, 16 μM LL-34-parent, LL-34-I24A, and LL-34-L31A as shown in the figure for 24 h (n = 6). A, H&E staining of cross sections of mice injected with U1 dsRNA or LL-34 peptides is shown. The bar represents […]. B–D, gene expression changes for IL-6, CXCL10, and TSLP were assessed with qRT-PCR. GAPDH was used as a reference gene. E–G, flow cytometry analysis was performed to assess the infiltration of immune cells in mouse ears injected with U1 dsRNA alone or a combination of U1 dsRNA and LL-34 peptides. Data are represented as the frequency of gated live cells for mast cells, macrophages, and neutrophils. (n = 3) (∗p < 0.05; ∗∗p < 0.01; ∗∗∗p < 0.001; ∗∗∗∗p < 0.0001). One way-ANOVA was used. LL-34, 34-amino acid peptide; ns, not significant.
All mouse procedures were approved by the University of California, San Diego (UCSD) Institutional Animal Care and Use Program (protocol number: S09074). Eight-week-old female C57BL/6 wildtype mice were used for experiments. C57BL/6 mice ears were injected intradermally with U1 dsRNA and/or LL-34 peptides as described previously ([7]). Single injections were performed. A total of 30 μl was injected in the middle part of the ear. Twenty-four hours after the injection, mice were euthanized with CO2 asphyxiation and ears excised and immediately collected in cold RPMI complete medium on ice and processed for immunohistochemistry, gene expression analysis, and flow cytometry within 1 h.
Mouse ears were collected following euthanasia in cold complete RPMI media on ice and cut into small pieces within 60 min, then digested with 2.5 mg/ml collagenase D, and 30 ng/ml DNase1 for 2 h at 37 °C and then filtered through a 30 μm filter to generate single-cell suspension for fluorescence-activated cell sorting analyses. Cells were then stained with Fixable Viability Dye eFluor 506 (eBioscience; 65-0866-14) blocked with antimouse CD16/32 (eBioscience; 14016185, 1:50 dilution), followed by staining with antibody cocktails for immune cells. The antibody cocktail for immune cells included PECy7-CD11b (BioLegend; 101216, 1:200 dilution), FITC-Ly6G (eBioscience; 11593182, 1:150 dilution), PE-F4/80 (eBioscience; 12480182, 1:200 dilution), APC-CD11C (BioLegend; 117310, 1:100 dilution), AF700-MHCII (eBioscience; 56532182, 1:100 dilution), and c-Kit (Biolegend; 10581, 1:100 dilution). Fluorescence-activated cell sorting analyses for surface expression of immune cell markers were performed by the Biorad ZE5 machine and analyzed by FlowJo V10 software (BD Biosciences). Dead cells were gated out from the analyses.

[3] = test system: normal human epidermal keratinocytes (NHEKs); assay: LDH release cytotoxicity assay in keratinocytes; assay type: cell-based; settings: minimal concentration giving 50% LDH release by NHEKs
How it was run: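 Normal human epidermal keratinocytes were exposed to LL-34 parent and alanine-substituted peptides. Cytotoxicity was read as LDH release in fresh culture supernatants after treatment, using a commercial kit, and reported as the minimal concentration showing toxicity.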

CC[C@H](C)[C@H](NC(=O)[C@H](CCCCN)NC(=O)[C@H](CCC(=O)O)NC(=O)[C@H](CCCCN)NC(=O)[C@H](CO)NC(=O)[C@H](CCCCN)NC(=O)[C@H](CCCNC(=N)N)NC(=O)[C@H](Cc1ccccc1)NC(=O)[C@H](Cc1ccccc1)NC(=O)[C@H](CC(=O)O)NC(=O)CNC(=O)[C@H](CC(C)C)NC(=O)[C@@H](N)CC(C)C)C(=O)NCC(=O)N[C@@H](CCCCN)C(=O)N[C@@H](CCC(=O)O)C(=O)N[C@@H](Cc1ccccc1)C(=O)N[C@@H](CCCCN)C(=O)N[C@@H](CCCNC(=N)N)C(=O)N[C@H](C(=O)N[C@H](C(=O)N[C@@H](CCC(N)=O)C(=O)N[C@@H](CCCNC(=N)N)C(=O)N[C@@H](C)C(=O)N[C@@H](CCCCN)C(=O)N[C@@H](CC(=O)O)C(=O)N[C@@H](Cc1ccccc1)C(=O)N[C@@H](CC(C)C)C(=O)N[C@@H](CCCNC(=N)N)C(=O)N[C@@H](CC(N)=O)C(=O)N[C@@H](CC(C)C)C(=O)N[C@H](C(=O)N1CCC[C@H]1C(=O)N[C@@H](CCCNC(=N)N)C(=O)O)C(C)C)C(C)C)[C@@H](C)CC [LL-34—I24A] (H-LLGDFFRKSKEKIGKEFKRIVQRAKDFLRNLVPR-OH)
Type I interferon signaling and RIGI antiviral pathway genes (STAT, ISG15, OAS1, IRF2, DDX58, MAVS) [1]: repressed
Gene expression of IL-6 and CXCL10 in mouse ears [2]: significantly reduced
Mast cells in mouse ear skin (flow cytometry) [2]: similarly increased mast cells
Macrophage and neutrophil recruitment in mouse ear skin (flow cytometry) [2]: significant reduction in macrophage and neutrophil recruitment
Minimal cytotoxic concentration in NHEK (LD50) [3]: 20 µM

CC[C@H](C)[C@H](NC(=O)[C@H](CCCCN)NC(=O)[C@H](CCC(=O)O)NC(=O)[C@H](CCCCN)NC(=O)[C@H](CO)NC(=O)[C@H](CCCCN)NC(=O)[C@H](CCCNC(=N)N)NC(=O)[C@H](Cc1ccccc1)NC(=O)[C@H](Cc1ccccc1)NC(=O)[C@H](CC(=O)O)NC(=O)CNC(=O)[C@H](CC(C)C)NC(=O)[C@@H](N)CC(C)C)C(=O)NCC(=O)N[C@@H](CCCCN)C(=O)N[C@@H](CCC(=O)O)C(=O)N[C@@H](Cc1ccccc1)C(=O)N[C@@H](CCCCN)C(=O)N[C@@H](CCCNC(=N)N)C(=O)N[C@H](C(=O)N[C@H](C(=O)N[C@@H](CCC(N)=O)C(=O)N[C@@H](CCCNC(=N)N)C(=O)N[C@H](C(=O)N[C@@H](CCCCN)C(=O)N[C@@H](CC(=O)O)C(=O)N[C@@H](Cc1ccccc1)C(=O)N[C@@H](CC(C)C)C(=O)N[C@@H](CCCNC(=N)N)C(=O)N[C@@H](CC(N)=O)C(=O)N[C@@H](C)C(=O)N[C@H](C(=O)N1CCC[C@H]1C(=O)N[C@@H](CCCNC(=N)N)C(=O)O)C(C)C)[C@@H](C)CC)C(C)C)[C@@H](C)CC [LL-34—L31A] (H-LLGDFFRKSKEKIGKEFKRIVQRIKDFLRNAVPR-OH)
Gene expression of IL-6 and CXCL10 in mouse ears [2]: significantly reduced
Mast cells in mouse ear skin (flow cytometry) [2]: significant decrease in mast cell number
Macrophage and neutrophil recruitment in mouse ear skin (flow cytometry) [2]: significant reduction in macrophage and neutrophil recruitment
Minimal cytotoxic concentration in NHEK (LD50) [3]: 10 µM

Reference: article PMC8214221, “Sequence determinants in the cathelicidin LL-37 that promote inflammation via presentation of RNA to scavenger receptors” (The Journal of Biological Chemistry, 2021)
